Data: article PMC6934184, “Selective DNA-PKcs inhibition extends the therapeutic index of localized radiotherapy and chemotherapy” (The Journal of Clinical Investigation, 2019)

Molecular target: T1, AURKB (Aurora B) (Homo sapiens, UniProt Q96GD4)
T1 construct: purchased Thermo Fisher Scientific (Life Technologies) SelectScreen
Assay: SelectScreen Z'LYTE
Format: biochemical
Method in brief: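 NU5455 was profiled across the SelectScreen Broad panel of kinase activity and binding assays. Z'LYTE reactions such as CSF1R ran at apparent Km ATP, while the Adapta CAMK1 assay used ATP listed as 10. Values are given as percent.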

T1 sequence (Q96GD4 whole entry): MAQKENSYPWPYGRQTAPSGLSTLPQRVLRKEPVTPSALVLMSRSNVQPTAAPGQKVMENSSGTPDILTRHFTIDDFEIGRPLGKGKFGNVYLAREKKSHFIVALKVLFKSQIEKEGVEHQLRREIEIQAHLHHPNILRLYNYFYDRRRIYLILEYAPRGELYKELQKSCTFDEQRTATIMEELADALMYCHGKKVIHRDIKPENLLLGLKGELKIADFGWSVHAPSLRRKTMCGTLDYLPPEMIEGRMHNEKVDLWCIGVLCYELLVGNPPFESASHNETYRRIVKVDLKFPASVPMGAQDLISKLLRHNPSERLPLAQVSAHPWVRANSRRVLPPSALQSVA

`CN(C(=O)CN1CCOCC1)c1ccc2sc3c(-c4cccc5c(=O)cc(N6CC7CCC(C6)O7)oc45)cccc3c2c1` [NU5455] gave an inhibition at 1 µM of 1.7%.
